Results published in US20040063662A1, “Selenophene anti-tumor agents” (priority 1996, published 2004).

Legend:
[1] = system: NCI-H460; assay: NCI human tumor cell panel: NCI-H460 (Non-Small Cell Lung Cancer); type: cell-based; conditions: for GI50: NCI-H460, read-out: Log10 GI50 (converted); for IC (TGI): NCI-H460, read-out: Log10 TGI (converted)
[2] = system: HCC-2998; assay: NCI human tumor cell panel: HCC-2998 (Colon Cancer); type: cell-based; conditions: for GI50: HCC-2998, read-out: Log10 GI50 (converted); for IC (TGI): HCC-2998, read-out: Log10 TGI (converted)
[3] = system: SNB-19; assay: NCI human tumor cell panel: SNB-19 (CNS Cancer); type: cell-based; conditions: for GI50: SNB-19, read-out: Log10 GI50 (converted); for IC (TGI): SNB-19, read-out: Log10 TGI (converted)
[4] = system: SNB-75; assay: NCI human tumor cell panel: SNB-75 (CNS Cancer); type: cell-based; conditions: for GI50: SNB-75, read-out: Log10 GI50 (converted); for IC (TGI): SNB-75, read-out: Log10 TGI (converted)
[5] = system: MCF7/ADR-RES; assay: NCI human tumor cell panel: MCF7/ADR-RES (Breast Cancer); type: cell-based; conditions: for GI50: read-out: Log10 GI50 (converted); for IC (TGI): read-out: Log10 TGI (converted)
[6] = system: IGROV1; assay: NCI human tumor cell panel: IGROV1 (Ovarian Cancer); type: cell-based; conditions: for GI50: IGROV-1, IGROV1, read-out: Log10 GI50 (converted); for IC (TGI): IGROV-1, IGROV1, read-out: Log10 TGI (converted)
[7] = system: A549/ATCC; assay: NCI human tumor cell panel: A549/ATCC (Non-Small Cell Lung Cancer); type: cell-based; conditions: for GI50: read-out: Log10 GI50 (converted); for IC (TGI): read-out: Log10 TGI (converted)
[8] = system: MOLT-4; assay: NCI human tumor cell panel: MOLT-4 (Leukemia); type: cell-based; conditions: for GI50: MOLT-4, read-out: Log10 GI50 (converted); for IC (TGI): MOLT-4, read-out: Log10 TGI (converted)
[9] = system: HOP-92; assay: NCI human tumor cell panel: HOP-92 (Non-Small Cell Lung Cancer); conditions: for GI50: HOP-92, read-out: Log10 GI50 (converted); for IC (TGI): HOP-92, read-out: Log10 TGI
[10] = system: DU-145; assay: NCI human tumor cell panel: DU-145 (Prostate Cancer); type: cell-based; conditions: for GI50: DU-145, read-out: Log10 GI50 (converted); for IC (TGI): DU-145, read-out: Log10 TGI (converted)
[11] = system: UO-31; assay: NCI human tumor cell panel: UO-31 (Renal Cancer); type: cell-based; conditions: for GI50: UO-31, read-out: Log10 GI50 (converted); for IC (TGI): UO-31, read-out: Log10 TGI (converted)
[12] = system: UACC-257; assay: NCI human tumor cell panel: UACC-257 (Melanoma); type: cell-based; conditions: for GI50: UACC-257, read-out: Log10 GI50 (converted); for IC (TGI): UACC-257, read-out: Log10 TGI (converted)
[13] = system: HCT-116; assay: NCI human tumor cell panel: HCT-116 (Colon Cancer); type: cell-based; conditions: for GI50: HCT-116, read-out: Log10 GI50 (converted); for IC (TGI): HCT-116, read-out: Log10 TGI (converted)
[14] = system: SK-MEL-5; assay: NCI human tumor cell panel: SK-MEL-5 (Melanoma); type: cell-based; conditions: for GI50: SK-MEL-5, read-out: Log10 GI50 (converted); for IC (TGI): SK-MEL-5, read-out: Log10 TGI (converted)
[15] = system: SF-295; assay: NCI human tumor cell panel: SF-295 (CNS Cancer); type: cell-based; conditions: for GI50: SF-295, read-out: Log10 GI50 (converted); for IC (TGI): SF-295, read-out: Log10 TGI (converted)
[16] = system: M14; assay: NCI human tumor cell panel: M14 (Melanoma); type: cell-based; conditions: for GI50: M14, read-out: Log10 GI50 (converted); for IC (TGI): M14, read-out: Log10 TGI (converted)
[17] = system: CCRF-CEM; assay: NCI human tumor cell panel: CCRF-CEM (Leukemia); type: cell-based; conditions: for GI50: read-out: Log10 GI50 (converted); for IC (TGI): read-out: Log10 TGI (converted)
[18] = system: MDA-N; assay: NCI human tumor cell panel: MDA-N (Breast Cancer); type: cell-based; conditions: for GI50: read-out: Log10 GI50 (converted); for IC (TGI): read-out: Log10 TGI (converted)
[19] = system: U251; assay: NCI human tumor cell panel: U251 (CNS Cancer); type: cell-based; conditions: for GI50: U-251, U251, read-out: Log10 GI50 (converted); for IC (TGI): U-251, U251, read-out: Log10 TGI (converted)
[20] = system: BT-549; assay: NCI human tumor cell panel: BT-549 (Breast Cancer); type: cell-based; conditions: for GI50: BT-549, read-out: Log10 GI50 (converted); for IC (TGI): BT-549, read-out: Log10 TGI (converted)
[21] = system: 786-0; assay: NCI human tumor cell panel: 786-0 (Renal Cancer); type: cell-based; conditions: for GI50: 786-0, read-out: Log10 GI50 (converted); for IC (TGI): 786-0, read-out: Log10 TGI (converted)
[22] = system: HS 578T; assay: NCI human tumor cell panel: HS 578T (Breast Cancer); type: cell-based; conditions: for IC (TGI): read-out: Log10 TGI (converted)
[23] = system: PC-3; assay: NCI human tumor cell panel: PC-3 (Prostate Cancer); type: cell-based; conditions: for GI50: PC-3, read-out: Log10 GI50 (converted); for IC (TGI): PC-3, read-out: Log10 TGI (converted)
[24] = system: ACHN; assay: NCI human tumor cell panel: ACHN (Renal Cancer); type: cell-based; conditions: for GI50: read-out: Log10 GI50 (converted); for IC (TGI): read-out: Log10 TGI (converted)
[25] = system: RPMI-8226; assay: NCI human tumor cell panel: RPMI-8226 (Leukemia); type: cell-based; conditions: for GI50: RPMI-8226, read-out: Log10 GI50 (converted); for IC (TGI): RPMI-8226, read-out: Log10 TGI
[26] = system: TK-10; assay: NCI human tumor cell panel: TK-10 (Renal Cancer); type: cell-based; conditions: for GI50: TK-10, read-out: Log10 GI50 (converted)
[27] = system: MCF7; assay: NCI human tumor cell panel: MCF7 (Breast Cancer); type: cell-based; conditions: for GI50: MCF7, read-out: Log10 GI50 (converted); for IC (TGI): MCF7, read-out: Log10 TGI (converted)
[28] = system: LOX IMVI; assay: NCI human tumor cell panel: LOX IMVI (Melanoma); type: cell-based; conditions: for GI50: read-out: Log10 GI50 (converted); for IC (TGI): read-out: Log10 TGI (converted)
[29] = system: OVCAR-3; assay: NCI human tumor cell panel: OVCAR-3 (Ovarian Cancer); type: cell-based; conditions: for GI50: OVCAR-3, read-out: Log10 GI50 (converted); for IC (TGI): OVCAR-3, read-out: Log10 TGI (converted)
[30] = system: K-562; assay: NCI human tumor cell panel: K-562 (Leukemia); type: cell-based; conditions: for GI50: K562, K-562, read-out: Log10 GI50 (converted); for IC (TGI): K562, K-562, read-out: Log10 TGI (converted)
[31] = system: MDA-MB-435; assay: NCI human tumor cell panel: MDA-MB-435 (Breast Cancer); type: cell-based; conditions: for GI50: MDA-MB-435, read-out: Log10 GI50 (converted); for IC (TGI): MDA-MB-435, read-out: Log10 TGI (converted)
[32] = system: OVCAR-8; assay: NCI human tumor cell panel: OVCAR-8 (Ovarian Cancer); type: cell-based; conditions: for GI50: OVCAR-8, read-out: Log10 GI50 (converted); for IC (TGI): OVCAR-8, read-out: Log10 TGI (converted)

## OCc1ccc(-c2ccc(-c3ccc(CO)[se]3)[se]2)[se]1 [compound 675247]
[1]
  GI50: 0.525 µM
  IC (TGI): 10 µM
[2]
  GI50: 0.851 µM
  IC (TGI): 3.24 µM
[3]
  GI50: 5.5 µM
  IC (TGI): 25.1 µM
[4]
  GI50: 14.8 µM
  IC (TGI): 38.9 µM
[5]
  GI50: 3.8 µM
  IC (TGI): 26.3 µM
[6]
  GI50: 1.38 µM
  IC (TGI): 6.46 µM
[7]
  GI50: 4.57 µM
  IC (TGI): 19.5 µM
[8]
  GI50: 3.31 µM
  IC (TGI): 8.32 µM
[9]
  GI50: 2.4 µM
  IC (TGI): 7.59 µM
[10]
  GI50: 6.92 µM
  IC (TGI): 19.5 µM
[11]
  GI50: 5.25 µM
  IC (TGI): 14.8 µM
[12]
  GI50: 0.437 µM
  IC (TGI): 2 µM
[13]
  GI50: 0.537 µM
  IC (TGI): 11.2 µM
[14]
  GI50: 1.45 µM
  IC (TGI): 3.02 µM
[15]
  GI50: 11.7 µM
  IC (TGI): 28.8 µM
[16]
  GI50: 3.72 µM
  IC (TGI): 12.9 µM
[17]
  GI50: 3.39 µM
  IC (TGI): 10 µM
[18]
  GI50: 7.76 µM
  IC (TGI): 25.1 µM
[19]
  GI50: 0.468 µM
  IC (TGI): 12.3 µM
[20]
  GI50: 3.39 µM
  IC (TGI): 14.1 µM
[21]
  GI50: 2.75 µM
  IC (TGI): 6.31 µM
[22]; read-out: Log10 GI50 (converted)
  GI50: 3.24 µM
[22]
  IC (TGI): 11.2 µM
[23]
  GI50: 3.55 µM
  IC (TGI): 12.3 µM
[24]
  GI50: 3.98 µM
  IC (TGI): > 100 µM
[25]
  GI50: 4.07 µM
  IC (TGI): > 100 µM
[26]
  GI50: 0.138 µM
[27]
  GI50: 0.158 µM
  IC (TGI): 11.2 µM
[28]
  GI50: 3.02 µM
  IC (TGI): 7.08 µM
[29]
  GI50: 0.209 µM
  IC (TGI): 1.17 µM
[30]
  GI50: 1.32 µM
  IC (TGI): 5.01 µM
[31]
  GI50: 2.95 µM
  IC (TGI): 9.77 µM
[32]
  GI50: 3.72 µM
  IC (TGI): 17.8 µM

## OCc1ccc(-c2ccc(-c3ccc(CO)[se]3)s2)s1 [compound 688830]
[1]
  GI50: 0.017 µM
  IC (TGI): 0.646 µM
[2]
  GI50: 0.0631 µM
  IC (TGI): 11.5 µM
[3]
  GI50: 33.9 µM
  IC (TGI): 87.1 µM
[4]
  GI50: 25.7 µM
  IC (TGI): > 100 µM
[5]
  GI50: 12.3 µM
  IC (TGI): > 100 µM
[6]
  GI50: 0.0141 µM
  IC (TGI): 0.174 µM
[7]
  GI50: 6.03 µM
  IC (TGI): 33.1 µM
[8]
  GI50: 38.9 µM
  IC (TGI): > 100 µM
[9]
  GI50: 28.2 µM
  IC (TGI): > 100 µM
[10]
  GI50: 22.9 µM
  IC (TGI): > 100 µM
[11]
  GI50: > 100 µM
  IC (TGI): > 100 µM
[12]
  GI50: 0.0166 µM
  IC (TGI): 0.0457 µM
[13]
  GI50: 0.0275 µM
  IC (TGI): 17.4 µM
[14]
  GI50: 36.3 µM
  IC (TGI): > 100 µM
[15]
  GI50: 20.9 µM
  IC (TGI): 56.2 µM
[16]
  GI50: 37.2 µM
  IC (TGI): > 100 µM
[17]
  GI50: 25.7 µM
  IC (TGI): > 100 µM
[18]
  GI50: 97.7 µM
  IC (TGI): > 100 µM
[19]
  GI50: 0.0832 µM
  IC (TGI): 20.9 µM
[20]
  GI50: > 100 µM
  IC (TGI): > 100 µM
[21]
  GI50: 6.46 µM
  IC (TGI): 22.9 µM
[22]
  IC (TGI): > 100 µM
[23]
  GI50: 30.9 µM
  IC (TGI): > 100 µM
[24]
  GI50: 20.9 µM
  IC (TGI): > 100 µM
[25]
  GI50: 37.2 µM
  IC (TGI): > 100 µM
[26]
  GI50: < 0.01 µM
[26]; TK-10, read-out: Log10 TGI (converted)
  IC (TGI): 0.0372 µM
[27]
  GI50: 0.0166 µM
  IC (TGI): > 100 µM
[28]
  GI50: 13.5 µM
  IC (TGI): 27.5 µM
[29]
  GI50: < 0.01 µM
  IC (TGI): 0.0562 µM
[30]
  GI50: 0.0724 µM
  IC (TGI): 17.4 µM
[31]
  GI50: > 100 µM
  IC (TGI): > 100 µM
[32]
  GI50: 6.92 µM
  IC (TGI): 30.9 µM
